Data as given in ChEMBL document CHEMBL1141835, “Sclerotigenin: A new antiinsectan benzodiazepine from the sclerotia of penicillium sclerotigenum” (1999).

Tested on: Helicoverpa zea
Experiment: Insecticidal activity against first instar larvae of Helicoverpa zea at 200 ppm administered with diet relative to control
Assay type: functional

O=C1NCc2nc3ccccc3c(=O)n2-c2ccccc21 [SCLEROTIGENIN]
Activity: 42%
